# Earlier results in patent US20230003743A1, “METHODS AND COMPOSITIONS FOR TREATING OR PREVENTING AN ALLERGY OR ANAPHYLAXIS” (THE CHILDREN'S MEDICAL CENTER CORPORATION, priority 2020, published 2023).
# Test system: humanized mouse model of FA
# Conditions: SCID mice engrafted with human CD34+ hematopoietic stem cells, peanut-sensitized, enterally challenged with PN
substance,measurement,value
Omalizumab,"anaphylactic response (hypothermia, increases in plasma tryptase levels) upon enteral peanut challenge",ablates this anaphylactic response
